The nature of series [1]: Single dose pharmacokinetics, oral bioavailability. It is filed as in vivo, Sprague-Dawley rats. To be noted: Rat p.o. dose, 1 mpk. The procedure: Compound and internal standard peak areas were determined using Scicx MacQuan software.
For series [2], the target named is mouse FL5.12 cells transfected with Bcl-xL (Homo sapiens, UniProt Q07817). The series is described as follows: FL5.12 cellular assay (cell viability, CellTiter-Glo). It is filed as cell-based. To be noted: IL-3-depleted, 3% FBS assay media, 24 hours; read-out: FL5.12 Bcl-xL, −IL3, EC50. The text has this: Individual determinations were the result of duplicate values.
In general terms: Cellular ATP, detected with luciferase, serves as a proxy for viable cell number.

Series [3] has as its target Bcl-xL (Homo sapiens, UniProt Q07817). The series is described as follows: TR-FRET binding assay, competition with F-Bak for Bcl-xL. To be noted: competition with F-Bak probe, GST-Bcl-xL. Summed up:
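Serially diluted compounds ([…] as 2× starting concentration, 10% DMSO) compete with F-Bak probe for Bcl-xL, detected via Tb-labelled antibody TR-FRET after 2 h at room temperature. Excitation 340 nm, emission 520/495 nm; Ki derived by Wang's equation. Can be run with human or fetal bovine serum.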

In series [4] the target is T1, Bcl-2 (Homo sapiens, UniProt P10415).
T1 construct: made in house
The series can be described thus: TR-FRET binding assay, competition with F-Bak for Bcl-2. As to conditions: GST-Bcl-2, read-out: Ki, competition with F-Bak for the Bcl-2 binding site. Background: In TR-FRET formats the signal depends on donor and acceptor labels being close together.
Description: The samples are then mixed on a shaker for 1 minute then incubated for an additional 2 hours at room temperature. For each assay plate, a probe/antibody and protein/antibody/probe mixture were included as a negative and a positive control, respectively. Fluorescence was measured on the ENVISION plate reader (Perkin Elmer) using a 340/35 nm excitation filter and 520/525 (F-Bak) and 495/510 nm (Tb-labeled anti-his antibody) emission filters. Dissociation constants (Ki) were determined using Wang's equation (Wang, Z. X. An exact mathematical expression for describing competitive binding of two different ligands to a protein molecule. FEBS Lett. 1995 360:111-114). […] For comparison, the measurement of the competition of compounds of Formula (I) for other Bcl-2 family protein binding sites (e.g., Bcl-2) using the TR-FRET binding assay was accomplished by substituting GST-Bcl-xL in the TR-FRET assay with other GST-labeled protein, e.g., GST-Bcl-2, prepared in-house.

Molecules are shown by their SMILES.

The record followed here is patent US11786519B2, “Apoptosis-inducing agents for the treatment of cancer and immune and autoimmune diseases” (AbbVie Inc., priority 2011, dated 2023).

For orientation: EC50 means the concentration giving half of the maximal effect. What is called Ki is the dissociation constant of the complex between target and ligand, obtained from inhibition or displacement.

Chain of Bcl-xL (Q07817 whole entry): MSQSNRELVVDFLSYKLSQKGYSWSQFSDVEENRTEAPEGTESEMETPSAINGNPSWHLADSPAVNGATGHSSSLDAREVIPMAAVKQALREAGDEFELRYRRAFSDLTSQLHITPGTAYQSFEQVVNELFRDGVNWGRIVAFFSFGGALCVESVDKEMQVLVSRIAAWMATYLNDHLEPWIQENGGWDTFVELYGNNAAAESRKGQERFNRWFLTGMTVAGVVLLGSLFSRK
Chain of mouse FL5.12 cells transfected with Bcl-xL (Q07817 whole entry, change not shown): as the sequence (Q07817 whole entry) above
T1 sequence (P10415 whole entry): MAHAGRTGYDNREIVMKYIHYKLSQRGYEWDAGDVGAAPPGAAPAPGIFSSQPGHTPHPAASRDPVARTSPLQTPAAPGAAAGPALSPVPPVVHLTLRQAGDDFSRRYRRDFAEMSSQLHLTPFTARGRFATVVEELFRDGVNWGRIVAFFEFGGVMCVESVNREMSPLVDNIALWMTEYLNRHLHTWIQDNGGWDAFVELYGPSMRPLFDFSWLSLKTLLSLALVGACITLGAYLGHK

On to `Cc1c(-c2ccc(N3CCc4cccc(C(=O)Nc5nc6ccccc6s5)c4C3)nc2C(=O)O)cnn1CC12CC3CC(CC(C3)O1)C2` [Example 59, 6-[8-(1,3-benzothiazol-2-ylcarbamoyl)-3,4-dihydroisoquinolin-2(1H)-yl]-3-[5-methyl-1-(2-oxatricyclo[3.3.1.1^3,7]dec-1-ylmethyl)-1H-pyrazol-4-yl]pyridine-2-carboxylic acid], for which the “F (%), dose” value in series [1] is 31, 1 mpk %. For the same molecule, the EC50 in series [2] stood at 0.3 nM. Further, the Ki was less than 0.1 nM in series [3] and 7 nM in series [4].
